Measured values from ChEMBL document CHEMBL5053540, “Synthesis and biological evaluation of isatin derivatives containing 1,3,4-thiadiazole as potent a-glucosidase inhibitors” (Bioorg Med Chem Lett, 2021).
pIC50, pKi: −log10 of the molar value. Active and inactive are the calls of the source. The rule behind the calls is not given here.

Experiments:
[1] = Inhibition of Saccharomyces cerevisiae alpha-glucosidase using pNPG as substrate
[2] = tested on: Saccharomyces cerevisiae; assay: Non-competitive inhibition of Saccharomyces cerevisiae alpha-glucosidase assessed as decrease in Vmax without affecting Km using varying levels of p-NPG as substrate by Lineweaver-burk plot analysis
[3] = tested on: Saccharomyces cerevisiae; assay: Potency index, ratio of resveratrol IC50 to test compound IC50 for inhibition of Saccharomyces cerevisiae alpha-glucosidase using pNPG as substrate
[4] = Non-competitive inhibition of Saccharomyces cerevisiae alpha-glucosidase assessed as inhibition constant by secondary re-plot of Lineweaver-burk plot analysis

| Structure (SMILES) | pIC50 [1] | further results |
| --- | --- | --- |
| O=C1/C(=N\Nc2nncs2)c2ccccc2N1Cc1ccccc1 | 4.68 | – |
| Oc1ccc(/C=C/c2cc(O)cc(O)c2)cc1 [RESVERATROL] | 4.66 | – |
| O=C1/C(=N\Nc2nncs2)c2ccccc2N1Cc1cccc(Cl)c1 | 5.14 | – |
| COc1ccc(CN2C(=O)/C(=N\Nc3nncs3)c3ccccc32)cc1 | 4.34 | – |
| O=C1/C(=N\Nc2nncs2)c2ccccc2N1Cc1ccccc1Br | 4.88 | – |
| Cc1ccc(CN2C(=O)/C(=N\Nc3nncs3)c3ccccc32)cc1 | 4.53 | – |
| O=C1/C(=N\Nc2nncs2)c2ccccc2N1Cc1ccc(Cl)cc1 | 5.51 | inhibition [2]: Active; Ratio IC50 [3]: 7; pKi [4]: 5.56 |
| Cc1cccc(CN2C(=O)/C(=N\Nc3nncs3)c3ccccc32)c1 | 4.49 | – |
| N#Cc1ccccc1CN1C(=O)/C(=N\Nc2nncs2)c2ccccc21 | < 3.70 | – |
| N#Cc1cccc(CN2C(=O)/C(=N\Nc3nncs3)c3ccccc32)c1 | < 3.70 | – |
| O=C1/C(=N\Nc2nncs2)c2ccccc2N1Cc1ccccc1F | 4.73 | – |
| COc1cccc(CN2C(=O)/C(=N\Nc3nncs3)c3ccccc32)c1 | 4.37 | – |
| Cc1ccccc1CN1C(=O)/C(=N\Nc2nncs2)c2ccccc21 | 4.60 | – |
| O=C1/C(=N\Nc2nncs2)c2ccccc2N1Cc1ccccc1Cl | 5.07 | – |
